ChEMBL document CHEMBL5370527, “Hit-to-lead optimization of a pyrazinylpiperazine series against Leishmania infantum and Leishmania braziliensis” (Eur J Med Chem, 2023)

Legend:
[1] = Selectivity index, ratio of CC50 for cytotoxicity against human THP-1 cells assessed as reduction in cell viability to IC50 for antileishmanial activity against […] stage of Leishmania infantum MHOM/BR/1974/PP75 infected in human THP-1 cells assessed as parasite growth inhibition; format: toxicity, cell-based; conditions: read-out: Ratio CC50/IC50
Leishmania braziliensis = assay: Antileishmanial activity against […] stage of Leishmania braziliensis MHOM/BR/75/M2904 infected in human THP-1 cells assessed as parasite growth inhibition incubated for 72 hrs by microplate reader analysis; format: functional, organism-based; conditions: MHOM/BR/75/M2904, THP-1, 72 h
Leishmania infantum = assay: Antileishmanial activity against […] stage of Leishmania infantum MHOM/BR/1974/PP75 infected in human THP-1 cells assessed as parasite growth inhibition incubated for 72 hrs by microplate reader analysis; format: functional, organism-based; conditions: MHOM/BR/1974/PP75, THP-1, 72 h
[2] = Cytotoxicity against human THP-1 cells assessed as reduction in cell viability incubated for 72 hrs by alamarblue staining based analysis; format: toxicity
[3] = Selectivity index, ratio of CC50 for cytotoxicity against human THP-1 cells assessed as reduction in cell viability to IC50 for antileishmanial activity against […] stage of Leishmania braziliensis MHOM/BR/75/M2904 infected in human THP-1 cells assessed as parasite growth inhibition; format: toxicity, cell-based; conditions: read-out: Ratio CC50/IC50
Trypanosoma cruzi = assay: Antitrypanosomal activity against Trypanosoma cruzi Tulahuen infected in mouse L929 cells assessed as parasite growth inhibition incubated for 96 hrs; format: functional, organism-based; conditions: L929, 96 h
Leishmania donovani [4] = assay: Inhibition of Leishmania donovani at 10 uM GSK-3 by kinase glo assay relative to control
[5] = Cytotoxicity against human HepG2 cells assessed as reduction in cell viability incubated for 4 days by celltiter-glo assay; format: toxicity, cell-based; conditions: time 4 day
Leishmania donovani [6] = assay: Antileishmanial activity against amastigote form of Leishmania donovani infected in HepG2 cells assessed as inhibition of parasite growth incubated for 72 hrs by Alamar blue staining based assay; format: functional, organism-based; conditions: HepG2, 72 h

| Structure (SMILES) | selectivity ratio [1] | IC50 (Leishmania braziliensis) | IC50 (Leishmania infantum) | CC50 at 72 h [2] | selectivity ratio [3] | IC50 (Trypanosoma cruzi) | inhibition (Leishmania donovani [4]) | CC50 at 96 h [5] | IC50 (Leishmania donovani [6]) |
| --- | --- | --- | --- | --- | --- | --- | --- | --- | --- |
| CC(C)(C)OC(=O)N[C@@H](Cc1ccc(O)cc1)C(=O)N1CCN(c2cnccn2)CC1 | 349 | 9.4 µM | 2.9 µM | 1.01 mM | 108 | – | – | – | – |
| O=C(c1cccc(O)c1)N1CCN(c2cnccn2)CC1 | 87 | 14.1 µM | 25.3 µM | 2.2 mM | 156 | > 175 µM | – | – | – |
| O=C(c1ccc(O)c(O)c1)N1CCN(c2cnccn2)CC1 | 407 | 9.4 µM | 3.5 µM | 1.42 mM | 151 | – | – | – | – |
| O=C(N1CCN(c2cnccn2)CC1)n1ccnc1 | 438 | 9.2 µM | 7.3 µM | 3.19 mM | 347 | – | – | – | – |
| O=C(c1ccc(O)cn1)N1CCN(c2cnccn2)CC1 | > 27 | 94 µM | 128 µM | > 3.5 mM | > 37 | – | – | – | – |
| O=C(c1ccc(N2CCCC2)nc1)N1CCN(c2cnccn2)CC1 | 53 | 5.9 µM | 5.3 µM | 0.28 mM | 48 | – | – | – | – |
| C[C@@H]1[C@H](O)[C@@H](C)/C=C/C=C/C=C/C=C/C=C/C=C/C=C/[C@H](O[C@@H]2O[C@H](C)[C@@H](O)[C@H](N)[C@@H]2O)C[C@@H]2O[C@](O)(C[C@@H](O)C[C@@H](O)[C@H](O)CC[C@@H](O)C[C@@H](O)CC(=O)O[C@H]1C)C[C@H](O)[C@H]2C(=O)O [AMPHOTERICIN B] | 1460 | 0.13 µM | 0.25 µM | 0.364 mM | 2800 | – | – | – | – |
| COc1ccc(C(=O)N2CCN(c3cnccn3)CC2)cc1OC | 13 | 33.6 µM | 55.3 µM | 0.721 mM | 21 | – | – | – | – |
| O=C(c1cccc(O)c1O)N1CCN(c2cnccn2)CC1 | > 1190 | 0.2 µM | 2.8 µM | > 3.33 mM | > 16600 | – | – | – | – |
| N[C@@H](Cc1ccc(O)cc1)C(=O)N1CCN(c2cnccn2)CC1 | – | 69.2 µM | 3.3 µM | 2.41 mM | 35 | – | – | – | – |
| O=C(c1ccccc1O)N1CCN(c2cnccn2)CC1 | 45 | 85.2 µM | 58.8 µM | 2.62 mM | 31 | > 175 µM | – | – | – |
| COc1ccc(C(=O)N2CCN(c3cnccn3)CC2)cn1 | 231 | 17.5 µM | 6.2 µM | 1.43 mM | 82 | – | – | – | – |
| COc1ccc(S(=O)(=O)N2CCN(c3cnccn3)CC2)cc1 | > 24 | 94.1 µM | 122 µM | > 2.99 mM | > 32 | – | – | – | – |
| Oc1ccc(N2CCN(c3cnccn3)CC2)cc1 | > 89 | 27.1 µM | 43.6 µM | > 3.9 mM | > 144 | – | – | – | – |
| O=C(c1ccc(O)cc1)N1CCN(c2cnccn2)CC1 | 346 | 7.6 µM | 3.1 µM | 1.07 mM | 141 | > 175 µM | – | – | – |
| COc1ccc(C(=O)N2CCN(c3cnccn3)CC2)c(OC)c1 | 18 | 30.6 µM | 26.4 µM | 0.482 mM | 16 | – | – | – | – |
| O=C(c1ccccn1)N1CCN(c2cnccn2)CC1 | 18 | 34.9 µM | 64.8 µM | 1.13 mM | 32 | – | – | – | – |
| O=C(c1cccc(Cl)c1)N1CCN(c2cnccn2)CC1 | 6 | 93.4 µM | 113 µM | 0.662 mM | 7 | > 175 µM | – | – | – |
| O=C(c1ccc(O)cc1O)N1CCN(c2cnccn2)CC1 | 20 | 19.1 µM | 21.9 µM | 0.443 mM | 23 | – | – | – | – |
| O=S(=O)(c1ccc(O)cc1)N1CCN(c2cnccn2)CC1 | 16 | 113 µM | 157 µM | 2.51 mM | 22 | – | – | – | – |
| O=C(c1ccc(C(F)(F)F)cc1)N1CCN(c2cnccn2)CC1 | 5 | 55.7 µM | 84.5 µM | 0.421 mM | 8 | > 175 µM | – | – | – |

| Structure (SMILES) | selectivity ratio [1] | IC50 (Leishmania braziliensis) | IC50 (Leishmania infantum) | CC50 at 72 h [2] | selectivity ratio [3] | IC50 (Trypanosoma cruzi) | inhibition (Leishmania donovani [4]) | CC50 at 96 h [5] | IC50 (Leishmania donovani [6]) |
| --- | --- | --- | --- | --- | --- | --- | --- | --- | --- |
| O=C(c1cccc(C(F)(F)F)n1)N1CCN(c2cnccn2)CC1 | 0.2 | 3540 µM | 7430 µM | 1.7 mM | 0.5 | > 175 µM | – | – | – |
| O=C(c1ccc(OC(F)(F)F)cc1)N1CCN(c2cnccn2)CC1 | 115 | 17.5 µM | 7.5 µM | 0.865 mM | 49 | > 175 µM | – | – | – |
| O=C(c1ccccc1)N1CCN(c2cnccn2)CC1 | 11 | 24.7 µM | 63.1 µM | 0.716 mM | 29 | > 175 µM | – | – | – |
| O=C(c1ccc2cc(O)ccc2c1)N1CCN(c2cnccn2)CC1 | 241 | 2.6 µM | 3.3 µM | 0.796 mM | 306 | – | – | – | – |
| O=C(c1ccc(C(F)(F)F)nc1)N1CCN(c2cnccn2)CC1 | 298 | 32.1 µM | 35.2 µM | 10.5 mM | 327 | > 175 µM | – | – | – |
| N#Cc1ccc(C(=O)N2CCN(c3cnccn3)CC2)cc1 | 81 | 22.7 µM | 15.9 µM | 1.29 mM | 57 | – | – | – | – |
| COc1cc(F)ccc1C(=O)N1CCN(c2cnccn2)CC1 | 40 | 13.1 µM | 34.3 µM | 1.36 mM | 104 | > 175 µM | – | – | – |
| COc1ccc(C(=O)N2CCN(c3cnccn3)CC2)cc1 | 422 | 10.1 µM | 4.5 µM | 1.9 mM | 188 | > 175 µM | – | – | – |
| O=C(c1ccc(O)c(Cl)c1)N1CCN(c2cnccn2)CC1 | 46 | 11.7 µM | 11.9 µM | 0.542 mM | 46 | > 175 µM | 1.65% | > 100 µM | 310 nM |
| O=C(c1ccc(Cl)nc1)N1CCN(c2cnccn2)CC1 | 184 | 10.1 µM | 1.9 µM | 0.349 mM | 35 | – | – | – | – |
| O=C(c1ccc(O)nc1)N1CCN(c2cnccn2)CC1 | 1460 | 184 µM | 176 µM | > 3.5 mM | > 19 | – | – | – | – |
| COc1cccc(C(=O)N2CCN(c3cnccn3)CC2)c1OC | 18 | 82.1 µM | 112 µM | 2 mM | 24 | – | – | – | – |
| O=C(c1cccnc1)N1CCN(c2cnccn2)CC1 | > 26 | 132 µM | 142 µM | > 3.71 mM | > 28 | – | – | – | – |
| O=C(c1ccc(-n2cnnn2)cc1)N1CCN(c2cnccn2)CC1 | 449 | 8.9 µM | 5.8 µM | 2.61 mM | 293 | > 175 µM | – | – | – |
| COc1ccc(Cl)cc1C(=O)N1CCN(c2cnccn2)CC1 | – | 7.8 µM | 27.5 µM | 1.01 mM | 130 | > 175 µM | – | – | – |
| Nc1ccc(C(=O)N2CCN(c3cnccn3)CC2)cn1 | 524 | 11.9 µM | 5.1 µM | 2.67 mM | 224 | – | – | – | – |
| O=C(c1ccc(F)cc1O)N1CCN(c2cnccn2)CC1 | 80 | 25.8 µM | 14.2 µM | 1.13 mM | 44 | – | – | – | – |
| O=C(c1ccc(NC2CCCC2)nc1)N1CCN(c2cnccn2)CC1 | 3 | 337 µM | 280 µM | 0.763 mM | 2 | – | – | – | – |
| O=C(/C=C/c1ccc(O)c(O)c1)N1CCN(c2cnccn2)CC1 | > 29 | 74.6 µM | 105 µM | > 3.06 mM | > 41 | – | – | – | – |
| O=C(c1ccc([N+](=O)[O-])cc1)N1CCN(c2cnccn2)CC1 | 13 | 161 µM | 221 µM | 2.81 mM | 17 | > 175 µM | – | – | – |
| O=C(c1cc(Cl)ccc1O)N1CCN(c2cnccn2)CC1 | 149 | 4.5 µM | 10.8 µM | 1.6 mM | 357 | – | – | – | – |
